Measurements taken from patent US20210352950A1 (priority 2019, published 2021).

Tests used:
[1] = intraperitoneal injection; Chen et al., 2007; 2008; cited from earlier work
[2] = system: FTH; assay: FTH protein expression in cells (western blot); format: cell-based, human and murine; conditions: HCT116, CT26.WT, STS 24 hours + vitamin C 350 μM 3 hours
Method: (§1) Cells were washed twice in ice-cold PBS and lysates were prepared in RIPA lysis buffer (50 mM Tris HCl pH 7.4, 150 mM NaCl, 1% NP-40, 0.25% deoxycholic acid, 1 mM EDTA) supplemented with protease and phosphatase inhibitors (protease inhibitor cocktail set III EDTA-free, Calbiochem, Cat. #: S39134; PhosStop, Roche), Samples were sonicated (bioruptor plus, diogenode) and centrifuged at 16.1 g for 30 minutes at 4° C. Tumor tissues were collected and snap frozen in liquid nitrogen immediately after mice were sacrificed, and stored in -80° C. until use. […] Protein concentrations were determined by BCA assay (Thermo Fisher Scientific, Cat. #: 23225). Proteins were diluted in 1× Laemmli sample buffer, boiled at 95° C. for 5 minutes and 30 μg of total proteins were separated by using SDS-PAGE and analyzed by western blotting by standard procedures. […] Membranes were incubated overnight at 4° C. with gentle shaking with the following primary antibodies: […] ADI-SPA894), FTH (1:1000, Cell Signaling, Cat. #: 3998), AMPK (1:1000, Cell Signaling, Cat. #: 2532), phospho-[…] AMPK (1:1000, Cell Signaling, Cat. #: 2535), eIF2a (1:1000, Cell signaling, Cat. #: 5324), phospho […] eIF2a (1:1000, Cell signaling, Cat. #: 3597), AKT (1:1000, Cell Signaling, Cat. #: 9272), phospho-[…] […] Bands intensity was quantified with NIH Image J software (version 1.48v).

[3] = system: HO-1; assay: HO-1 protein expression in CT26.WT (western blot); format: cell-based, murine; conditions: vitamin C 350 μM 3 hours
Method: as §1

[4] = system: HCT116 cells; assay: Muse cell viability assay (percentage of dead cells); conditions: HCT116, CTR medium, vitamin C ≥0.3 mM (350 μM), 24 hours
[5] = system: ROS in HCT116 cells; assay: CellROX reactive oxygen species measurement; format: cell-based, human; conditions: HCT116, vitamin C 1 mM as single intervention, 30 minutes
Method: Intracellular reactive-oxygen species (ROS) were measured using the CellROX oxidative stress reagents (Life Technologies, Cat. #: 10422). CellROX fluorogenic probe is designed to measure reactive-oxygen species (ROS) in live cells. […] For ROS measurement, cells were seeded in 10 cm petri dish (4×10^5 cells in CTR medium). After 24 hours cells were rinsed twice in 1×PBS and CTR or STS medium was added. 24 hours later, cells were trypsinized, resuspended in their respective media, and treated with 1 mM sodium ascorbate and 1 μM CellROX deep red reagent in the dark, for 30 minutes at 37° C. and 5% CO2. Then, fluorescence was immediately analyzed by flow cytometry (Attune NxT flow cytometer). Data were processed by Kaluza analysis software (Beckman coulter, version 2.0). Data were expressed as fold change of the median fluorescent intensity (MFI) of each treated sample versus the MFI of control sample.

[6] = system: HCT116 subcutaneous tumors; assay: HCT116 xenograft tumor volume; format: in vivo, mouse; conditions: NSG mice
[7] = system: KRAS wild type cell lines (SW48, HT29, PC-3, COV362), normal colon cell line (CCD841CoN) and normal fibroblasts (BJ); assay: Muse cell viability assay, KRAS wild type and normal cells; format: cell-based; conditions: single agent or in combination with STS condition
[8] = system: ferrous ion (Fe2+) in HCT116 cells; assay: Intracellular ferrous iron detection (Iron Assay Kit); format: cell-based, human; conditions: HCT116, STS 24 hours + vitamin C 350 μM 3 hours, compared to all other conditions
Method: Intracellular ferrous ions were measured using Iron Assay Kit (Cat. #: ab83366). Ferrous ions (Fe^2+), but not ferric ions (Fe^3+) specifically reacts with […] (an iron chromogen) producing a stable colored complex, whose absorbance is measured at 593 nm. For Fe^2+ measurement experiment, cells were seeded in 10 cm petri dish (4×10^5 cells) in CTR medium. After 24 hours cells were rinsed twice in 1×PBS and CTR or STS medium was added. […] Next, cells were lysed in iron assay buffer and intracellular ferrous iron level was measured according to manufacturer protocol. Absorbance was recorded at the wavelength of 593 nm using a microplate reader (Infinite M200 TECAN). Data are expressed as fold change versus control sample.

[9] = system: phospho-AMPK (threonine 172); assay: AMPK phosphorylation (western blot); format: cell-based, human; conditions: HCT116, STS 24 hours + vitamin C 350 μM 3 hours
Method: as §1

[10] = system: phospho-eIF2a (serine 51); assay: eIF2a phosphorylation (western blot); format: cell-based, human; conditions: HCT116, STS 24 hours + vitamin C 350 μM 3 hours
Method: as §1

In the case of `O=C1O[C@H]([C@@H](O)CO)C(O)=C1O` [vitamin C, ascorbic acid], the “vitamin C level reached by parenteral (intraperitoneal) administration” value [1] is given as 3 mM, the “FTH protein expression level” value [2] is given as “reduces FTH protein expression level” and the “HO-1 protein expression level” value [3] is given as “up-regulates HO-1 expression level”. The cell death [4] was “able to induce cell death”, the ROS levels [5] was “increase ROS levels” and the “tumor progression, single interventions” value ([6]; 3-days FMD every week or vitamin C 4 g/kg i.p. twice a day) was “delayed tumor progression”. For the same compound, the “anti-cancer effect combined with fasting cycles” value ([6]; 3 cycles of fasting (2 days, water only) + vitamin C 4 g/kg i.p. twice a day) was “significantly enhanced”, the “sensitivity to vitamin C treatment” value [7] was “not sensitive” and the “ferrous ion (Fe2+) level” value [8] was “significantly higher”. For the same compound, the AMPK phosphorylation level [9] was “strongly up-regulated AMPK phosphorylation level” and the eIF2a phosphorylation level [10] was “significantly induced the phosphorylation level”.
